# Assay results published in US20240110150A1, “PHOTON UPCONVERSION BIOMATERIALS, MICELLE AND NANOPARTICLES FOR THREE-DIMENSIONAL (3D) OPTOGENETICS” (THE TRUESTEES OF COLUMBIA UNIVERSITY IN THE CITY OF NEW YORK, priority 2020, published 2024).
# System: HeLa cells
# Test: Cell viability assay (Cell-Titer-Glo) of emulsions, one hour
# Type: cell-based
# Method: HeLa cells (obtained from American Type Culture Collection) were maintained in Dulbecco's Modified Eagle's Medium (Gibco) supplemented with 10% fetal bovine serum (Invitrogen) at 37° C. in a humidified 5% CO2 atmosphere. For viability assays testing biocompatibility of the emulsions, cells were plated in a 96-well white opaque plate format at 40,000 cells per well, allowed to seed overnight, and then treated with emulsions at indicated concentrations for one hour. These viability assays utilized the Cell-Titer-Glo 2.0 reagent (Promega, G9243) according to the manufacturer's instructions. Briefly, 100 μL of Cell-Titer-Glo 2.0 reagent, diluted at 1:1 with culture media, was added to each well containing 100 μl emultion-particles-containing media. Plates were gently agitated for 2 minutes and incubated at room temperature for 10 minutes in the dark to promote adequate mixing. Luminescence was subsequently measured using a Victor 5 plate reader (Perkin Elmer). The intensity of luminescence was normalized to that of cells with no emulsion particles added.
row,Substance,biocompatibility of emulsion surfactants
1,Pluronic F127,biocompatible and nontoxic to the cells
2,Tween 80,only Pluronic F127 was found to be biocompatible and nontoxic
